From PMC7483518, “Destabilizing single chain major histocompatibility complex class I protein for repurposed enterokinase proteolysis” (Scientific Reports, 2020)
Where two headings read alike, the source gives them in different places.

Columns and labels:
[1] = biological target: photolabile unchained HLA-A*11:01 pMHC-I protein (Homo sapiens, UniProt P04439, A114D/D185E/E176A/F33Y/L180Q/S129P/T187R); assay: ELISA with photolabile unchained pMHC-I protein and UV irradiation; type: binding; conditions: for ELISA450nm: Table 2, 62.5 nM photolabile pMHC-I mixture, 5 μM peptide in PBS, UV 365 nm 2 × 5 min on ice, 2 h room temperature on anti-β2m plate, Abs450nm − Abs570nm, instability cutoff < 0.6
[2] = system: HLA-A*11:01 single chain protein; type: biochemical, Human; design: EZ50kDa / EZ50kD (pH 6.2) / EZ50kD (pH 8) / EZ50kD (normalised: EBV1101 = 1, EBV0201 = 0) / EZ50kDa rank: unit not given beside the values; conditions: for EZ50kDa rank: HLA-A*11:01 single chain protein, 9-mer peptides;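 on EZ50kD (pH 6.2): scaled with positive control peptide as 1 and negative control peptide as 0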
[3] = EASY MHC-I A*11:01, 2019-07-25, mean of the 2 replicates
[4] = Table 2, pH 6.2, 37 °C, enterokinase, Eq. (4), instability cutoff < 0.3
[5] = EASY MHC-I A*11:01, gel 2019-07-17 lr1028-1036 5min, mean of 2 replicates
[6] = EASY MHC-I A*11:01, gel 2019-07-17 lr1028-1036 5min, replicate 1 (lanes 1-14)
[7] = EASY MHC-I A*11:01, gel 2019-07-17 lr1028-1036 5min, replicate 2 (lanes 15-28)

Compound: Nc1nc(Nc2ccc3c(c2)CC[C@@H](N2CCCC2)CC3)nn1-c1cc2c(nn1)-c1ccccc1CCC2 [CS1046]
- EASY_mean ([1]; […], mean, STDEV): -0.001122

Compound: AIKTSPKA [EX1001]
- EASY_mean [1]: -0.01453
- EZ_mean [2]: -0.04572

Compound: AIKTSPKAN [EX1006]
- EASY_mean ([1]; […], mean, STDEV): 0.003202
- EZ_mean [2, 3]: -0.02264

Compound: AIKTSPKANK [EX1012, EGFR exon 19 deletion-derived peptide]
- EASY_mean ([1]; […], mean, STDEV): 0.01176
- EZ_mean [2, 3]: -0.007078

Compound: AIKTSPKANKE [EX1019]
- EASY_mean ([1]; […], mean, STDEV): 0.001081
- EZ_mean ([2]; EASY MHC-I A*11:01, 2019-07-26, mean of the 2 replicates): -0.09791

Compound: AIKTSPKANKEI [EX1027]
- EASY_mean [1]: -0.02114
- EZ_mean ([2]; EASY MHC-I A*11:01, 2019-08-01, mean of the 2 replicates): -0.13

Compound: AINSEMFLR [reference compound]
- EZ50kDa rank ([2]; pH 6.2, 37 °C): 0.901
- EZ50kD (pH 6.2) ([2]; pH 6.2): 0.9012
- EZ50kD (pH 8) [2]: 1.19

Compound: ATVLMGLGK [reference compound]
- ELISA450nm [1]: 1.911
- EZ50kD (pH 6.2) [2, 4]: 1.039

Compound: ATVQGQNLK [reference compound]
- EZ50kD (pH 6.2) ([2]; pH 6.2): 0.8968
- EZ50kD (pH 8) [2]: 0.767

Compound: ATYGWNLVK [reference compound]
- EZ50kD (pH 6.2) ([2]; pH 6.2): 0.8706
- EZ50kD (pH 8) [2]: 1.994

Compound: AVQTKPGLFK [reference compound]
- EZ50kD (pH 6.2) ([2]; pH 6.2): 0.955
- EZ50kD (pH 8) [2]: 1.546

Compound: CLTSTVQLIM [TM1018]
- EASY_mean ([1]; […], mean, STDEV): 0.01464
- EZ_mean ([2]; EASY MHC-I A*11:01, run 2019-08-07, 5min, mean of 2 replicates): -0.01698

Compound: CLTSTVQLIMQ [TM1029]
- EASY_mean ([1]; ELISA signal, mean, […]): -0.0718
- EZ_mean [2]: -0.1239

Compound: CLTSTVQLIMQL [TM1040]
- EASY_mean ([1]; ELISA signal, mean, […]): -0.0545
- EZ_mean [2]: -0.1197

Compound: DFGRAKLL [LR1005]
- EASY_mean ([1]; ELISA signal, mean, […]): -0.01718
- EZ_mean [2]: -0.05649

Compound: DFGRAKLLG [LR1014]
- EASY_mean ([1]; ELISA signal, mean, […]): -0.02793
- EZ_mean [2]: -0.05414

Compound: DFGRAKLLGA [LR1024]
- EASY_mean ([1]; ELISA signal, mean, […]): -0.02296
- EZ_mean [2]: -0.06389

Compound: DFGRAKLLGAE [LR1035]
- EASY_mean [1]: -0.05461
- EZ_mean [2, 5]: -0.0623
- EZ50kD (normalised: EBV1101 = 1, EBV0201 = 0) [2, 6]: -0.08387
- Norm (50 kDa band adj. volume normalised: Undig_37C = 1, Dig_37C = 0) [2, 6]: -0.0751
- EZ50kD (normalised: EBV1101 = 1, EBV0201 = 0) [2, 7]: -0.04073
- Norm (50 kDa band adj. volume normalised: Undig_37C = 1, Dig_37C = 0) [2, 7]: -0.03413

Compound: DFGRAKLLGAEE [LR1047]
- EASY_mean [1]: -0.01199
- EZ_mean [2]: -0.04163

Compound: DLAQCFFCFK [reference compound]
- ELISA450nm [1]: 0.3956

Compound: FGRAKLLG [LR1006]
- EASY_mean ([1]; ELISA signal, mean, […]): -0.01563
- EZ_mean [2]: -0.05388

Compound: FGRAKLLGA [LR1015]
- EASY_mean ([1]; […], mean, STDEV): -0.02405
- EZ_mean [2]: -0.04617

Compound: FGRAKLLGAE [LR1025]
- EASY_mean ([1]; ELISA signal, mean, […]): -0.01153
- EZ_mean [2]: -0.04476

Compound: FGRAKLLGAEE [LR1036]
- EASY_mean [1]: -0.04853
- EZ_mean [2, 5]: -0.05281
- EZ50kD (normalised: EBV1101 = 1, EBV0201 = 0) [2, 6]: -0.07114
- Norm (50 kDa band adj. volume normalised: Undig_37C = 1, Dig_37C = 0) [2, 6]: -0.06733
- EZ50kD (normalised: EBV1101 = 1, EBV0201 = 0) [2, 7]: -0.03448
- Norm (50 kDa band adj. volume normalised: Undig_37C = 1, Dig_37C = 0) [2, 7]: -0.02973

Compound: FGRAKLLGAEEK [LR1048]
- EASY_mean [1]: -0.01082
- EZ_mean [2]: -0.03879

Compound: FGSLLDYV [CS1006]
- EASY_mean [1]: -0.03548
- EZ_mean [2]: -0.06948

Compound: FGSLLDYVR [CS1015]
- EASY_mean [1]: -0.01602
- EZ_mean [2]: -0.05849

Compound: FGSLLDYVRE [CS1025]
- EASY_mean [1]: 0.005114
- EZ_mean [2]: -0.05956

Compound: FGSLLDYVREH [CS1036]
- EASY_mean [1]: 0.0933
- EZ_mean [2]: 0.04199
- EZ50kDa ([2]; Table 3, EGFR peptide library (n = 177, duplicated), pH 6.2, 37 °C, 14 h, enterokinase, Eq. (4)): 0.0420 ± 0.010

Compound: FIDSYICQV [reference compound]
- ELISA450nm [1]: 0.3491

Compound: FLLTKILTI [reference compound]
- ELISA450nm [1]: 0.1791

Compound: FTNDSIISH [reference compound]
- EZ50kDa rank ([2]; pH 6.2, 37 °C): 0.696
- EZ50kD (pH 6.2) ([2]; pH 6.2): 0.6961
- EZ50kD (pH 8) [2]: 0.1339

Compound: GAMLFLISGK [reference compound]
- EZ50kD (pH 6.2) ([2]; pH 6.2): 0.7468
- EZ50kD (pH 8) [2]: 1.036

Compound: GLSPTVWLSA [reference compound]
- ELISA450nm [1]: 0.2488

Compound: GSLLDYVREH [CS1026]
- EASY_mean [1]: -0.04117

Compound: GSLLDYVREHKD [CS1049]
- EASY_mean [1]: -0.02126

Compound: KFLPDLYDYK [reference compound]
- ELISA450nm [1]: 0.4809

Compound: KSGAIKVLK [reference compound]
- EZ50kD (pH 6.2) ([2]; pH 6.2): 0.819
- EZ50kD (pH 8) [2]: 0.4865

Compound: KTFVDLMRR [reference compound]
- EZ50kD (pH 6.2) ([2]; pH 6.2): 0.8241
- EZ50kD (pH 8) [2]: 0.165

Compound: LLAQFTSAL [putative peptide, HBV, no IEDB entry]
- ELISA450nm [1]: 0.214

Compound: LMPFGSLLDYVR [CS1045]
- EASY_mean [1]: 0.002285

Compound: LNIDLLWSV [reference compound]
- ELISA450nm [1]: 0.2738

Compound: LVSFLLLAGR [reference compound]
- EZ50kD (pH 8) [2]: 0.07206

Compound: LVVDFSQFSR [reference compound]
- EZ50kD (pH 6.2) [2, 4]: 0.9461

Compound: MANEMGFLEK [reference compound]
- EZ50kD (pH 6.2) ([2]; pH 6.2): 0.527

Compound: MATYGWNLVK [reference compound]
- EZ50kD (pH 6.2) ([2]; pH 6.2): 0.6384
- EZ50kD (pH 8) [2]: 0.007553

Compound: MSYTMCSGK [reference compound]
- EZ50kDa rank ([2]; pH 6.2, 37 °C): 1.198
- EZ50kD (pH 6.2) ([2]; pH 6.2): 1.198
- EZ50kD (pH 8) [2]: 1.094

Compound: MVSRLLLNR [reference compound]
- EZ50kD (pH 6.2) ([2]; pH 6.2): 1.196
- EZ50kD (pH 8) [2]: 0.2396

Compound: MVWESGCTV [IEDB 140,054, Human; a known HLA-A*02:01 antigen, reference compound]
- ELISA450nm [1]: 0.5937

Compound: NILNPFLPLL [putative peptide, HBV, no IEDB entry]
- ELISA450nm [1]: 0.2827

Compound: PFGSLLDYVRE [CS1035]
- EASY_mean [1]: -0.00332

Compound: PFGSLLDYVREH [CS1047]
- EASY_mean [1]: -0.01054

Compound: RSQSPRRR [putative peptide, HBV, no IEDB entry]
- ELISA450nm [1]: 0.1859

Compound: RTLSPRRR [putative peptide, Streptomyces sp, no IEDB entry]
- ELISA450nm [1]: 0.1209

Compound: RTLSPRRRR [putative peptide, HBV, no IEDB entry]
- ELISA450nm [1]: 0.8658

Compound: RTQSPRRR [reference compound]
- ELISA450nm [1]: 0.3319

Compound: RTQSPRRRR [reference compound]
- ELISA450nm [1]: 1.204

Compound: STLPETTVIR [putative peptide, HBV, no IEDB entry]
- ELISA450nm [1]: 1.302

Compound: SVQPTFSVQR [reference compound]
- EZ50kD (pH 6.2) ([2]; pH 6.2): 1.051
- EZ50kD (pH 8) [2]: 0.7376

Compound: TLALEVAQQK [reference compound]
- EZ50kD (pH 6.2) ([2]; pH 6.2): 0.7399
- EZ50kD (pH 8) [2]: 0.4517

Compound: TMVMELIRMIK [reference compound]
- ELISA450nm [1]: 0.748

Compound: TSGSPIIDK [reference compound]
- EZ50kDa rank ([2]; pH 6.2, 37 °C): 0.795
- EZ50kD (pH 6.2) ([2]; pH 6.2): 0.7953
- EZ50kD (pH 8) [2]: 0.1596

Compound: TTKRDLGMSK [reference compound]
- EZ50kD (pH 6.2) ([2]; pH 6.2): 0.796
- EZ50kD (pH 8) [2]: 0.3796

Compound: TTYLGPLSCK [reference compound]
- EZ50kD (pH 6.2) ([2]; pH 6.2): 1.084
- EZ50kD (pH 8) [2]: 1.911

Compound: TVIRRRGR [reference compound]
- ELISA450nm [1]: 0.1482

Compound: TVVGRRGRSPR [putative peptide, HBV, no IEDB entry]
- ELISA450nm [1]: 1.259

Compound: TVVRRRCR [putative peptide, HBV, no IEDB entry]
- ELISA450nm [1]: 0.4625

Compound: TVVRRRCRSPR [putative peptide, HBV, no IEDB entry]
- ELISA450nm [1]: 0.4145

Compound: VTRGAVLMHK [reference compound]
- EZ50kD (pH 6.2) ([2]; pH 6.2): 0.6228

Compound: YVSAIAQTEK [reference compound]
- EZ50kD (pH 6.2) ([2]; pH 6.2): 0.3037
